# Assay results from US8680132B2, “Spiro-oxindole MDM2 antagonists” (priority 2010, dated 2014).
# Where two headings read alike, the source gives them in different places.
# Assays:
# SJSA-1 (p53 wild-type) = assay: Cell growth assay (WST-8); assay type: cell-based; conditions: Homo sapiens
# PC-3 (deleted p53) = assay: Cell growth assay (WST-8); assay type: cell-based; conditions: read-out: IC50 PC-3 (deleted p53)
# HCT-116 (p53—/—) = assay: Cell growth assay (WST-8); assay type: cell-based; conditions: Homo sapiens
# HCT-116 (p53 wild-type) = assay: Cell growth assay (WST-8); assay type: cell-based, human; conditions: Homo sapiens
# LNCAP (p53 wild-type) = assay: Cell growth assay (WST-8); assay type: cell-based, human; conditions: Homo sapiens, LNCaP, read-out: IC50 LNCAP (p53 wild-type)
# RS4; 11 (p53 wt) = assay: cells; conditions: Homo sapiens, RS4-11, 96 h, read-out: RS4, 11 (p53 wt) IC50 (μM)
# [1] = tested on: prostate cancer cell line 22Rv1; assay: Growth inhibition assay (Celltiter-Glo), 22Rv1; assay type: cell-based; conditions: Homo sapiens, 22Rv1, 96 h, read-out: IC50 growth inhibition
# [2] = biological target: recombinant human His-tagged MDM2 protein (residues 1-118) (Homo sapiens (Human), UniProt Q00987); assay: Fluorescence-polarization MDM2 binding assay (Example 2); conditions: Table 2A; no unit in the cell (μM unless otherwise indicated)
# [3] = SJSA-1, read-out: IC50 SJSA-1 (p53 wild-type)
# [4] = HCT-116, read-out: IC50 HCT-116 (p53—/—)
# [5] = HCT-116, read-out: IC50 HCT-116 (p53 wild-type)
# Sequence of recombinant human His-tagged MDM2 protein (residues 1-118) (Q00987 1-118): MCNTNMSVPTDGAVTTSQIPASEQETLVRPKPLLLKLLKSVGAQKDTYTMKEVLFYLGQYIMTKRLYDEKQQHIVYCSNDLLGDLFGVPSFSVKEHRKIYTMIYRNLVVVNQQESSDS
SMILES,IC50 (PC-3 (deleted p53)),IC50 (HCT-116 (p53 wild-type); [5]),IC50 (LNCAP (p53 wild-type)),IC50 [2],other results
CC(C)(C)C[C@@H]1N[C@@H](C(=O)NC2CCC(C)(O)CC2)[C@H](c2cccc(Cl)c2F)[C@]12C(=O)Nc1cc(Cl)ccc12 (stereo partly drawn),11100 nM,100 nM,200 nM,,IC50 (SJSA-1 (p53 wild-type); [3]): 100 nM; IC50 (HCT-116 (p53—/—); [4]): 10600 nM
CC(C)(C)C[C@H]1N[C@@H](C(=O)NC2CCC(O)CC2)[C@H](c2cccc(Cl)c2F)[C@@]12C(=O)Nc1cc(Cl)ccc12 (stereo partly drawn) [MI-773],14700 nM,58 nM,85 nM,,IC50 (SJSA-1 (p53 wild-type); [3]): 61 nM; IC50 (RS4; 11 (p53 wt); Four day treatment): 0.13 µM
CC(C)(C)C[C@@H]1N[C@@H](C(=O)N[C@H]2C[C@@](C)(O)C2)[C@H](c2cc(Cl)ccc2F)[C@]12C(=O)Nc1cc(Cl)ccc12 [C11701],19600 nM,1400 nM,1500 nM,,IC50 (HCT-116 (p53—/—); [4]): 21800 nM
CC(C)(C)C[C@@H]1N[C@@H](C(=O)N[C@H]2C[C@@](C)(O)C2)[C@H](c2cccc(Cl)c2F)[C@]12C(=O)Nc1cc(Cl)ccc12 [MI-519-6401],,,,,"IC50 (SJSA-1 (p53 wild-type); SJSA-1, 96 h, read-out: IC50 SJSA-1 (p53 wild-type)): 400 nM; IC50 (RS4; 11 (p53 wt)): 0.13 ± 0.02 µM; IC50 (PC-3 (deleted p53); 96 h): 10500 nM; IC50 (HCT-116 (p53—/—); HCT-116, 96 h, read-out: IC50 HCT-116 (p53—/—)): 12200 nM; IC50 [1]: 100 to 500 nM; IC50 (HCT-116 (p53 wild-type); HCT-116, 96 h, read-out: IC50 HCT-116 (p53 wild-type)): 102 nM; IC50 (LNCAP (p53 wild-type); 96 h): 330 nM"
"CC(C)(C)C[C@@H]1N[C@@H](C(=O)NC2CCC(O)CC2)[C@H](Cc2ccccc2)[C@]12C(=O)Nc1cc(Cl)ccc12 (single isomer, unassigned) [CB084-Isomer B]",,,,> 5 µM,
CCN1[C@@H](CC(C)(C)C)[C@@]2(C(=O)Nc3cc(Cl)ccc32)[C@@H](c2cccc(Cl)c2F)[C@@H]1C(=O)N[C@H]1C[C@@](C)(O)C1 [C29701],,,,< 0.1 µM,
"O=C(NC1CCC(O)CC1)[C@@H]1N[C@@H](c2ccccc2)[C@@]2(C(=O)Nc3cc(Cl)ccc32)[C@H]1c1cccc(Cl)c1F (single isomer, unassigned) [CB087-Isomer B]",,,,< 0.5 µM,
